These results are taken from ChEMBL document CHEMBL1131950, “Reversal of P-glycoprotein mediated multidrug resistance by novel anthranilamide derivatives” (Bioorg Med Chem Lett, 1999).

One experiment deals with EMT6. In words: Reversal effect on the accumulation of [3H]- daunorubicin in mouse mammary carcinoma cell line EMT6/AR 1.0. Type of experiment: functional, cell-based.
Conditions: not given
With `COc1cc2c(cc1OC)CN(CCc1ccc(NC(=O)c3cc(OC)c(OC)cc3NC(=O)c3cnc4ccccc4c3)cc1)CC2` [TARIQUIDAR], the IC50 is 38 nM.

The same experiment, now with this note: read-out: IC50.
As to `COc1cc2c(cc1OC)CN(CCc1ccc(NC(=O)c3ccc(Cl)cc3NC(=O)c3cnc4ccccc4c3)cc1)CC2`, the concentration for half-maximal inhibition (IC50) was found to be 141 nM.
Still for that read-out and setting: to `COc1ccc(CCn2c(-c3ccc(N(C)C)cc3)nc3ccccc3c2=O)cc1OC` belongs 5000 nM; to `COc1cc2c(cc1OC)CN(CCc1ccc(NC(=O)c3ccccc3NC(=O)c3ccc(C)nc3)cc1)CC2`, 67 nM; to `COc1cc2c(cc1OC)CN(CCc1ccc(NC(=O)c3ccccc3NC(=O)c3cnc(C)cn3)cc1)CC2`, 67 nM.
For `COc1cc2c(cc1OC)CN(CCc1ccc(NC(=O)c3ccccc3NC(=O)c3ccc4ccccc4n3)cc1)CC2`, the IC50 was 790 nM.
As to `COc1cc2c(cc1OC)CN(CCNC(=O)c1ccccc1NC(=O)c1ccc(N(C)C)cc1)CC2`, the IC50 was 2400 nM.
Same read-out and setting: then `COc1cc2c(cc1OC)CN(CCc1ccc(NC(=O)c3ccccc3NC(=O)c3ccoc3)cc1)CC2`, with 920 nM; and `COc1cc2c(cc1OC)CN(CCc1ccc(NC(=O)c3cc(F)ccc3NC(=O)c3cnc4ccccc4c3)cc1)CC2`, with 60 nM.
Consider `COc1cc2c(cc1OC)CN(CCc1ccc(NC(=O)c3ccccc3C(=O)c3ccccc3)cc1)CC2`, for which the IC50 is 1100 nM.
Still for that read-out and setting: to `COc1cc2c(cc1OC)CN(CCc1ccc(NC(=O)c3ccc(F)cc3NC(=O)c3cnc4ccccc4c3)cc1)CC2` belongs 38 nM.
The same measure, in the same setting: to `COc1cc2c(cc1OC)CN(CCc1ccc(NC(=O)c3cc(C)ccc3NC(=O)c3cnc4ccccc4c3)cc1)CC2` belongs 220 nM.
On the same count and under the same terms, to `COc1cc2c(cc1OC)CN(CCc1ccc(NC(=O)c3ccccc3Sc3ccccc3)cc1)CC2` belongs 2300 nM; to `COc1cc2c(cc1OC)CN(CCc1ccc(NC(=O)c3ccc([N+](=O)[O-])cc3NC(=O)c3cnc4ccccc4c3)cc1)CC2`, 45 nM; to `COc1cc2c(cc1OC)CN(CCNC(=O)c1ccccc1NC(=O)c1ccc(C(C)C)cc1)CC2`, 1100 nM.
Take `COc1cc2c(cc1OC)CN(CCc1ccc(NC(=O)c3ccccc3Oc3ccccc3)cc1)CC2`: the IC50 is 2700 nM.
The same measure, in the same setting: to `COc1cc2c(cc1OC)CN(CCc1ccc(NC(=O)c3cccc(/C=c4\[nH]c(=O)/c(=C/c5ccccc5)n(C)c4=O)c3)cc1)CC2` belongs 220 nM; to `COc1cc2c(cc1OC)CN(CCc1ccc(NC(=O)c3ccccc3NC(=O)c3ccc(C(C)C)cc3)cc1)CC2`, 850 nM; to `COc1cc2c(cc1OC)CN(CCc1ccc(NC(=O)c3ccccc3NC(=O)c3cnccn3)cc1)CC2`, 204 nM.
The same measure, in the same setting: then `COc1cc2c(cc1OC)CN(CCc1ccc(NC(=O)c3ccccc3NC(=O)c3ccco3)cc1)CC2`, with 3300 nM; and `COc1cc2c(cc1OC)CN(CCc1ccc(NC(=O)c3ccccc3NC(=O)c3cnc4ccccc4c3)cc1)CC2`, with 87 nM; and `COc1cc2c(cc1OC)CN(CCNC(=O)c1ccccc1NC(=O)c1ccc(C3CCCCC3)cc1)CC2`, with 1600 nM.
Still for that read-out and setting: to `COc1cc2c(cc1OC)CN(CCc1ccc(NC(=O)c3ccccc3NC(=O)c3cc4ccccc4cn3)cc1)CC2` belongs 4900 nM; to `COc1cc2c(cc1OC)CN(CCc1ccc(NC(=O)c3ccccc3NC(=O)c3ccccn3)cc1)CC2`, 680 nM.
Regarding `COc1cc2c(cc1OC)CN(CCc1ccc(NC(=O)c3ccccc3NC(=O)c3cnc4ccccc4n3)cc1)CC2`, the IC50 was determined as 92 nM.
Still for that read-out and setting: to `COc1cc2c(cc1OC)CN(CCc1ccc(NC(=O)c3cc(N(C)C)ccc3NC(=O)c3cnc4ccccc4c3)cc1)CC2` belongs 293 nM; to `COc1cc2c(cc1OC)CN(CCc1ccc(NC(=O)c3ccccc3NC(=O)c3ccccc3)cc1)CC2`, 250 nM; to `COc1cc2c(cc1OC)CN(CCc1ccc(NC(=O)c3cc(Cl)ccc3NC(=O)c3cnc4ccccc4c3)cc1)CC2`, 149 nM.
On the same count and under the same terms, then `COc1cc2c(cc1OC)CN(CCc1ccc(NC(=O)c3ccccc3NC(=O)c3ccsc3)cc1)CC2`, with 730 nM; and `COc1cc2c(cc1OC)CN(CCc1ccc(NC(=O)c3ccccc3-c3ccccc3)cc1)CC2`, with 1700 nM.
Still for that read-out and setting: then `COc1cc2c(cc1OC)CN(CCc1ccc(NC(=O)c3ccccc3NC(=O)c3cccnc3)cc1)CC2`, with 880 nM; and `COc1cc2c(cc1OC)CN(CCNC(=O)c1ccccc1NC(=O)c1ccccc1)CC2`, with 6800 nM.

The subject of another experiment is MDR. In words: Potency tested against multidrug resistance (MDR) cell lines expressing P-gp (P-glycoprotein). The class given is functional, cell-based.
Conditions: not given
`COc1cc2c(cc1OC)CN(CCc1ccc(NC(=O)c3cc(F)ccc3NC(=O)c3cnc4ccccc4c3)cc1)CC2` registered an EC50 of 27 nM.
Turning to `COc1cc2c(cc1OC)CN(CCc1ccc(NC(=O)c3ccccc3NC(=O)c3cnc4ccccc4c3)cc1)CC2`, a half-maximal effect (EC50) was put at 30 nM.
Still for that read-out and setting: then `COc1cc2c(cc1OC)CN(CCc1ccc(NC(=O)c3ccccc3NC(=O)c3cnc4ccccc4n3)cc1)CC2`, with 19 nM.
Same read-out and setting: then `COc1cc2c(cc1OC)CN(CCc1ccc(NC(=O)c3cc(OC)c(OC)cc3NC(=O)c3cnc4ccccc4c3)cc1)CC2` [TARIQUIDAR], with 16.3 nM.

In general, IC50 refers to the concentration that gives 50% inhibition. For orientation: EC50 means the concentration giving half of the maximal effect.
